Entries after “also recorded” stand apart in the source; their conditions may differ.
Experiments:
[1] = target: HPV16 E6; conditions: read-out: affinity of HPV16 E6 / E6AP; ref [29]; cited from earlier work
[2] = target: T1, BPV1 E6 (Bovine papillomavirus type 1, UniProt P06931); type: physicochemical; conditions: peptide provided during BPV1 E6 biosynthesis
[3] = target: T1, BPV1 E6; experiment: SPR; type: binding
[4] = target: T2, BPV1 E6 released from MBP-LXXLL-tevs-E6 by TEV protease (Bovine Papillomavirus Type 1, UniProt P06931 1-137); experiment: SEC
T2 sequence: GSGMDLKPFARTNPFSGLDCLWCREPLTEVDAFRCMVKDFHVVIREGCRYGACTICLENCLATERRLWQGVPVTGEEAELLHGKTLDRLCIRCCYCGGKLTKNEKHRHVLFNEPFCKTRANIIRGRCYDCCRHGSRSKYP

[5] = target: T3, paxillin LXXLL peptide (Homo sapiens, UniProt P49023); experiment: SPR
T3 chain: MDDLDALLADLESTT

## ESSELTLQELLGEER [E6AP]
[1]
  Kd: 4000 nM

## EFTMDDLDALLADKE [paxillin LXXLL peptide]
[2]
  effect on BPV1 E6 protein solubility (in words): greatly enhanced the protein’s solubility

## DDLDALLADKE [paxillin]
[3]; SPR sensorgrams, paxillin as compared to E6AP
  dissociation phase (in words): remarkably slow dissociation phase; also recorded: slow dissociation rate kinetics
[3]; SPR, as compared to other E6/peptide interactions
  affinity for BPV1 E6 (in words): significantly higher affinity as compared to other E6/peptide interactions; also recorded: significantly stronger; also recorded: high affinity

B1: synthetic peptide derived from paxillin (LXXLL synthetic peptide) (peptide)
peptide: EFTMDDLDALLADKE
[4]
  binding result: binds

B2: E6 (protein)
chain: MDLKPFARTNPFSGLDCLWCREPLTEVDAFRCMVKDFHVVIREGCRYGACTICLENCLATERRLWQGVPVTGEEAELLHGKTLDRLCIRCCYCGGKLTKNEKHRHVLFNEPFCKTRANIIRGRCYDCCRHGSRSKYP
[5]
  Kd: 35.1 nM

B3: MBP-fused LXXLL peptide (MBP-LXXLL-tevs left after TEV digestion of MBP-LXXLL-tevs-E6) (peptide)
chain: MDDLDALLADGGSGSNENLYFQ
[4]
  binding result: binds

— PMC3183320 (Protein expression and purification, 2011)
